Data on two compounds can be found in publication PMC10535880, “Caco-2 Cell Sheet Partially Laminated with HT29-MTX Cells as a Novel In Vitro Model of Gut Epithelium Drug Permeability” (Pharmaceutics, 2023).

In one data set the test system is HT29-MTX-E12 cells. More on the design: method as in PMID 23869232. The note with it: added during the first six days of semi-wet interface with mechanical stimulation; 28 days of incubation; without addition 3–5 μm; cited from earlier work.
Data set [1] has as its system Caco-2/HT29-MTX partially laminated model.
Procedure: In the short-term culture model, Caco-2 monolayers were prepared according to the protocol of the Corning® BioCoat^TM Intestinal Epithelial Cell Environment Kit (Corning Inc., Corning, NY, USA) with slight modifications with reference to the procedure reported by Yamashita et al. [20]. Briefly, Caco-2 cells were seeded at a density of 1 × 10^5 cells/insert onto 24-well Transwell® inserts (0.4 μm pore size, Corning Inc.) using a basal seeding medium. After 24 h of incubation (37 °C, 5% CO2), the basal seeding medium was replaced with the enterocyte differential medium. After an additional 72 h of incubation, a cell monolayer was formed, and the integrity was evaluated via TEER using an epithelial volt-ohmmeter (EVOM2, World Precision Instruments Inc., Sarasota, FL, USA). In the long-term culture model, Caco-2 cells were seeded at a density of 1 × 10^4 cells/insert onto 24-well Transwell® inserts using DMEM containing 10% FBS, 1% nonessential amino acids, and 1% penicillin-streptomycin for 21 days.
(§1) When preparing the partially laminated model, a Caco-2 monolayer with a TEER value ≥ 2000 Ω·cm^2 was formed first, and HT29-MTX cells were then laminated onto the Caco-2 monolayer at ratios of 1:9, 3:7, and 5:5, followed by incubation for the predetermined time. As for the coculture model, Caco-2 and HT29-MTX cells were seeded simultaneously in the different ratios and incubated for the predetermined time to form a hybrid monolayer.
(§2) Briefly, the culture medium on both sides of the Transwell® insert was replaced with HBSS and washed twice with prewarmed HBSS. […] The Papp coefficients of the model drugs were calculated using the following equation [19, 21]:(1) Papp=dQ/dt×1/A.C0 where dQ/dt is the velocity of solutes transported across the culture cell sheet in time, C0 is the concentration of the solute in the apical compartment at time zero, and A is the cross-sectional area of the cell sheet in contact with the apical solution.
The supernatant was collected as a sample for LC-MS/MS. […]
The test system of data set [2] is Caco-2/HT29-MTX coculture model.
Procedure: as §1, §2

Read-outs that look alike come from different tables or passages of the source.

As for `C[C@H](NC(=O)Cc1cc(F)cc(F)c1)C(=O)NC(C(=O)OC(C)(C)C)c1ccccc1` (stereo partly drawn) [N-[(3,5-difluorophenyl)acetyl]-L-alanyl-2-phenyl]glycine-1,1-dimethylethyl ester], in the data set on HT29-MTX-E12 cells, the mucus layer thickness is 25–30 μm.

As for Lucifer yellow, the “Papp compared to that in the Caco-2 monolayer” value was 1.5 times in data set [1] (5:5 ratio of Caco-2/HT29-MTX), 1.5 times in data set [1] (7:3 ratio of Caco-2/HT29-MTX) and “similar” in data set [1] (9:1 ratio of Caco-2/HT29-MTX). For the same compound, the “Papp compared to that in the Caco-2 monolayer model” value in data set [2] was “significantly higher”. The “Papp compared to that of the HT29-MTX monolayer” value in data set [2] (independent of the Caco-2:HT29-MTX ratio) is listed as “similar”.
